In US8889667B2 (Agios Pharmaceuticals, Inc, priority 2010, dated 2014) one finds AC50 data, which are given here for 14 molecules.

The assay deals with PKM2 (Homo sapiens, UniProt P14618). Put plainly: PKM2 Assay (activation, LDH-coupled, absorbance at 340 nm). The assay is classed as biochemical. As for the experimental part: • PKM2 stock enzyme solution was diluted in Reaction Buffer • 2 μL of compound was added into each well first, and then 180 μL of the Reaction Mix was added. • Reaction mixture with compound (without ADP) was incubated for 30 minutes at 4° C. • Plates were re-equilibrated to room temperature prior to adding 20 μL ADP to initiate the reaction. • Reaction progress was measured as changes in absorbance at 340 nm wavelength at room temperature (25° C.) Reaction Mix: PKM2 (50 ng/well), ADP (0.7 mM), PEP (0.15 mM), NADH (180 μM), LDH (2 units) in Reaction Buffer Reaction Buffer: 100 mM KCl, 50 mM Tris pH 7.5, 5 mM MgCl2, 1 mM DTT, 0.03% BSA.
Representative compounds of the invention were tested for their ability to activate PKM2 using the above assay. For simplicity, the activation activity of these compounds is represented as an AC50 in Tables 4 and 5 and throughout the application. […] “B” refers to an activator of PKM2 with an EC50 between 100 nM and 500 nM. “C” refers to an activator of PKM2 with an EC50 between 500 nM and 1000 nM. “D” refers to an activator of PKM2 with an EC50 between 1 μM and 20 μM. “E” refers a compound whose activation of PKM2 was not measurable. “N/C” refers to AC50 data not available.

The structures appear in SMILES notation.

PKM2, sequence (P14618 whole entry): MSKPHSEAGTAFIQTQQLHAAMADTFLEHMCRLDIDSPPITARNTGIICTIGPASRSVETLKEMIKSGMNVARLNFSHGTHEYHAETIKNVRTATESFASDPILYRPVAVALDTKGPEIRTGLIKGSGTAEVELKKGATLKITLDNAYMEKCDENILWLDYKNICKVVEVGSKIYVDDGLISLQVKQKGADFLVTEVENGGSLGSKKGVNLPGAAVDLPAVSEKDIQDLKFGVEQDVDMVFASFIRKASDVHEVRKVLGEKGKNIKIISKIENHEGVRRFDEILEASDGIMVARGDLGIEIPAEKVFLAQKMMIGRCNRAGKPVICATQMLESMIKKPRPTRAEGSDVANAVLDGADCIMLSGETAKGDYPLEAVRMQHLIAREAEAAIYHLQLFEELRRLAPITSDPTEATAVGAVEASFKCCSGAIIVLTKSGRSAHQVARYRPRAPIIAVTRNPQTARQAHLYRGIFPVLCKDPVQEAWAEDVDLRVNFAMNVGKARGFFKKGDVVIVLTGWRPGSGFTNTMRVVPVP

By AC50 is commonly meant the midpoint of the concentration-response curve, whichever way the signal moves. Low values mean activity at low concentration, high ones activity only at high concentration. Turning to `O=C(c1ccc(NS(=O)(=O)c2cccc3cccnc23)c(C(F)(F)F)c1)N1CCN(Cc2ccncc2)CC1` [Compound 328, N-(4-(4-(pyridin-4-ylmethyl)piperazine-1-carbonyl)-2-(trifluoromethyl)phenyl)quinoline-8-sulfonamide], the AC50 (Table 5) was 1000 to 20000 nM.

For `C[C@@H]1CN(C(=O)OC2CCCCC2)CCN1C(=O)c1ccc(NS(=O)(=O)c2cccc3cccnc23)cc1` [Compound 123, (R)-Cyclohexyl 3-methyl-4-(4-(quinoline-8-sulfonamido)benzoyl)piperazine-1-carboxylate], the AC50 (Table 4) was below 100 nM.

For the setting “Table 5”, `O=C(c1ccc(NS(=O)(=O)c2cccc3cccnc23)cn1)N1CCN(Cc2ccc(F)cc2)CC1` [Compound 416, N-(6-(4-(4-fluorobenzyl)piperazine-1-carbonyl)pyridin-3-yl)quinoline-8-sulfonamide] displayed an AC50 of 100 to 500 nM.

In turn, `O=C(c1ccc(NS(=O)(=O)c2cccc3cccnc23)cc1)N1CCN(C2(c3ccc(F)cc3)CC2)CC1` [Compound 399, N-(4-(4-(1-(4-fluorophenyl)cyclopropyl)piperazine-1-carbonyl)phenyl)quinoline-8-sulfonamide] registered an AC50 (Table 5) below 100 nM.

The molecule `O=C(c1ccc(NS(=O)(=O)c2cccc3cccnc23)c(OC(F)(F)F)c1)N1CCN(C(=O)c2cocn2)CC1` [Compound 327] displayed an AC50 (Table 5) of 500 to 1000 nM.

Under “Table 5”, `COc1cc(C(=O)N2CCN(C(=O)Oc3ccccn3)CC2)ccc1NS(=O)(=O)c1cccc2cccnc12` [Compound 315, Pyridin-2-yl 4-(3-methoxy-4-(quinoline-8-sulfonamido)benzoyl)piperazine-1-carboxylate] showed an AC50 of 100 to 500 nM.

`C[C@H](c1ccccc1)N1CCN(C(=O)c2ccc(NS(=O)(=O)c3cccc4cccnc34)cc2)CC1` [Compound 388, (R)—N-(4-(4-(1-phenylethyl)piperazine-1-carbonyl)phenyl)quinoline-8-sulfonamide]: under “Table 5”, the AC50 was below 100 nM.

`C[C@@H]1CN(C(=O)O[C@@H]2CCCOC2)CCN1C(=O)c1ccc(NS(=O)(=O)c2cccc3cccnc23)cc1` [Compound 127, (R)—((R)-tetrahydro-21′-pyran-3-yl)-3-methyl-4-(4-(quinoline-8-sulfonamido)benzoyl)piperazine-1-carboxylate] had an AC50 (Table 4) of 100 to 500 nM.

`CC(c1ccc(F)cc1F)N1CCN(C(=O)c2ccc(NS(=O)(=O)c3cccc4cccnc34)cc2)[C@H](C)C1` (stereo partly drawn) [Compound 160, N-(4-((2R)-4-(1-(2,4-difluorophenyl)ethyl)-2-methylpiperazine-1-carbonyl)phenyl)quinoline-8-sulfonamide]: under “Table 4”, the AC50 was below 100 nM.

Turning to `CC(c1c(F)ccc(F)c1F)N1CCN(C(=O)c2ccc(NS(=O)(=O)c3cccc4cccnc34)cc2)CC1` (centres unmarked) [Compound 404, N-(4-(4-(1-(2,3,6-trifluorophenyl)ethyl)piperazine-1-carbonyl)phenyl)quinoline-8-sulfonamide], for the setting “Table 5”, the AC50 was below 100 nM.

Regarding `CC(c1ccc(F)c(F)c1F)N1CCN(C(=O)c2ccc(NS(=O)(=O)c3cccc4cccnc34)cc2)CC1` (centres unmarked) [Compound 403, N-(4-(4-(1-(2,3,4-trifluorophenyl)ethyl)piperazine-1-carbonyl)phenyl)quinoline-8-sulfonamide], under “Table 5”, the AC50 was below 100 nM.

Turning to `O=C(c1ccc(NS(=O)(=O)c2cccc3cccnc23)cc1F)N1CCN(Cc2ccc(Cl)c(F)c2)CC1` [Compound 422, N-(4-(4-(4-chloro-3-fluorobenzyl)piperazine-1-carbonyl)-3-fluorophenyl)quinoline-8-sulfonamide], the AC50 (Table 5) fell in the range of 100 to 500 nM.

`O=C(c1ccc(NS(=O)(=O)c2cccc3cccnc23)cc1)N1C2CCC1CN(Cc1cc(F)cc(F)c1)C2` [Compound 227, N-(4-(3-(3,5-difluorobenzyl)-3,8-diazabicyclo[3.2.1]octane-8-carbonyl)phenyl)quinoline-8-sulfonamide] had an AC50 (Table 4) of 100 to 500 nM.

With `[2H]C(c1cc(F)cc(F)c1)N1CCN(C(=O)c2ccc(NS(=O)(=O)c3cccc4cccnc34)cc2)CC1` (centres unmarked) [Compound 450, N-(4-(4-(3,5-difluorobenzyl)piperazine-1-carbonyl)phenyl)quinoline-8-sulfonamide-(D)], where the note is “Table 5”, the AC50 was below 100 nM.
